Legend:
[1] = system: contact hypersensitivity to oxazolone; assay: Inhibitory effect on contact hypersensitivity to oxazolone in mice; type: in vivo, mouse (male ICR); conditions: topical, 24 hours after challenge
Method: (3) Inhibitory effect on contact hypersensitivity to oxazolone in mice:
This test was carried out by the method of Evans et al. [cf. Brit.
Male ICR mice (18-20 g) were used. The abdominal region of the mice was carefully clipped with an electric clipper, and 0.1 ml of a 0.5 w/v % oxazolone solution in absolute ethanol was gently rubbed into the clipped area. Five days after the sensitization 20 μl of a 0.5 w/v % oxazolone solution in acetone or chloroform, or the solution containing test compound was applied to both sides of the right ear. The left ear was not treated. Twenty-four hours after the challenge, the animals were sacrificed with diethyl ether. The circular parts (5.5 mm in diameter) of both ears were removed by punching and then weighed. The inhibitory rate was determined by comparing the ear swelling of the mice treated with oxazolone containing test compound with that of the mice treated with oxazolone. Each group of 8 mice was used for each dose of the test compound.

[2] = system: passive cutaneous anaphylaxis (PCA); assay: Inhibitory effect on passive cutaneous anaphylaxis (PCA) in rats; type: in vivo, rat (male Wistar); conditions: Rattus norvegicus; 20 mg/kg, oral, 1 hour before antigen challenge; read-out: Inhibition (PCA in rats)
Method: (1) Inhibitory effect on passive cutaneous anaphylaxis (PCA) in rats:
This test was carried out by the method of Perper et al. [cf.
Male Wistar rats (130-180 g) were injected with 0.1 ml of a dilute solution of mouse antiserum to egg albumin in two sites of the shaved ventral skin. Forty-eight hours later each rat was challenged by an intravenous injection of 2 mg of the antigen together with 1 ml of a 0.5% Evan's blue saline solution. The rats were sacrificed 30 minutes after the challenge. The area of the blueing lesions was measured on the undersurface of the skin. The average value of the two lesions of each rat was regarded as the response of the rat. Test compounds in a dose of 20 mg/kg, dissolved or suspended in a 0.5% aqueous tragacanth solution, were administered orally 1 hour before the antigen challenge. The inhibitory rate was determined by comparing the responses of the rats given each test compound with those of the rats given only a 0.5% aqueous tragacanth solution. Each group of 3 rats was used for each test compound. The mouse antiserum to egg albumin was produced by the method of Levine and Vaz [cf. Int. Arch. Allergy Appl.

Cc1ccc(C=CC(=O)NCCCCN2CCN(C(c3ccccc3)c3ccccc3)CC2)cn1 [Example 2, N-[3-(6-methyl-3-pyridyl)acryloyl]-4-(4-diphenylmethyl-1-piperazinyl)butylamine]
% Inhibition of ear swelling ([1]; 0.3 mg/ear): 40.8% | % Inhibition of ear swelling ([1]; 1.0 mg/ear): 90.0% | inhibition in vivo at 20 mg/kg [2]: 81.9%

Source: US4778796A, “ω-(3-pyridyl)alkenamide derivatives and anti-allergenic pharmaceutical compositions containing same” (Dainippon Pharmaceutical Co., Ltd., priority 1985, dated 1988)
